Laboratory results taken from ChEMBL document CHEMBL5608180, “DNA G-quadruplexes in the genome of Trypanosoma cruzi as potential therapeutic targets for Chagas disease: Dithienylethene ligands as effective antiparasitic agents” (Eur J Med Chem, 2024).
The source made the active and inactive calls. The rule behind the calls is not given here.

Assays:
Trypanosoma cruzi [1] = test: Antiparasitic activity against epimastigote form of Trypanosoma cruzi Y(TcII) assessed as inhibition of parasite growth incubated for 96 hrs followed by incubation with resazurin for 4 to 6 hrs by resazurin dye based fluorescence analysis; type: functional, organism-based
Trypanosoma cruzi [2] = test: Antiparasitic activity against epimastigote form of Trypanosoma cruzi SOL(TcV) assessed as inhibition of parasite growth incubated for 96 hrs followed by incubation in dark with resazurin for 4 to 6 hrs by resazurin dye based fluorescence analysis; type: functional, organism-based
Trypanosoma cruzi [3] = test: Antiparasitic activity against epimastigote form of Trypanosoma cruzi BM Lopez (TcIa) assessed as inhibition of parasite growth incubated for 96 hrs followed by incubation with resazurin for 4 to 6 hrs by resazurin dye based fluorescence analysis; type: functional, organism-based
Trypanosoma cruzi [4] = test: Antiparasitic activity against epimastigote form of Trypanosoma cruzi DA (TcI) assessed as inhibition of parasite growth incubated for 96 hrs followed by incubation with resazurin for 4 to 6 hrs by resazurin dye based fluorescence analysis; type: functional, organism-based
[5] = Cytotoxicity against human MRC5 cells; type: toxicity, cell-based
[6] = Selectivity index, ratio of IC50 for cytotoxicity against human MRC5 cells to IC50 for antiparasitic activity against epimastigote form of Trypanosoma cruzi Y (TcII); type: toxicity, cell-based; settings: read-out: Ratio IC50
[7] = Selectivity index, ratio of IC50 for cytotoxicity against human MRC5 cells to IC50 for antiparasitic activity against epimastigote form of Trypanosoma cruzi SOL (TcV); type: toxicity, cell-based; settings: read-out: Ratio IC50
[8] = Selectivity index, ratio of IC50 for cytotoxicity against human MRC5 cells to IC50 for antiparasitic activity against epimastigote form of Trypanosoma cruzi BM Lopez (TcIa); type: toxicity, cell-based; settings: read-out: Ratio IC50
[9] = Selectivity index, ratio of IC50 for cytotoxicity against human MRC5 cells to IC50 for antiparasitic activity against epimastigote form of Trypanosoma cruzi DA (TcI); type: toxicity, cell-based; settings: read-out: Ratio IC50
Trypanosoma cruzi [10] = test: Antiparasitic activity against trypomastigote form of Trypanosoma cruzi SOL (MHOM/ES/2008/SOL; DTU V) assessed as inhibition of parasite growth incubated for 96 hrs followed by incubation in dark with resazurin for 4 to 6 hrs by resazurin dye based fluorescence analysis; type: functional, organism-based
[11] = Selectivity index, ratio of IC50 for cytotoxicity against human MRC5 cells to IC50 for antiparasitic activity against trypomastigote form of Trypanosoma cruzi SOL (TcV); type: toxicity, cell-based; settings: read-out: Ratio IC50
Quadruplex DNA [12] = test: Stabilization of Trypanosoma cruzi G-quadruplex RCr DNA (FAM-5'-GGGGACGGGAATGGGGGTGCATGAGGGG-3'-TAMRA) assessed as change in apparent melting temperature at 5 uM by FRET melting analysis; type: nucleic-acid assay
Quadruplex DNA [13] = test: Stabilization of Trypanosoma cruzi G-quadruplex MCr DNA (FAM-5'-GTGGAGGGGGAGGGTCATGGGG-3'-TAMRA) assessed as change in apparent melting temperature at 5 uM by FRET melting analysis; type: nucleic-acid assay
Quadruplex DNA [14] = test: Stabilization of Trypanosoma cruzi G-quadruplex TCr DNA (FAM-5'-GGGAGGGACGGATGGGCAGAAACGGG-3'-TAMRA) assessed as change in apparent melting temperature at 5 uM by FRET melting analysis; type: nucleic-acid assay
Quadruplex DNA [15] = test: Stabilization of human telomere G-quadruplex F21T DNA (FAM-5'-GGGTTAGGGTTAGGGTTAGGG-3'-TAMRA) assessed as change in apparent melting temperature at 5 uM by FRET melting analysis; type: nucleic-acid assay
Quadruplex DNA [16] = test: Stabilization of human proto-oncogene G-quadruplex MYC DNA (FAM-5'-TTGAGGGTGGGTAGGGTGGGTAA-3'-TAMRA) assessed as change in apparent melting temperature at 5 uM by FRET melting analysis; type: nucleic-acid assay
dsDNA [17] = test: Binding affinity to human duplex FdxT DNA (FAM-5'-TATAGCTAT-peg-TATAGCTATA-3'-TAMRA) at 5 uM by FRET melting analysis; type: nucleic-acid assay
Quadruplex DNA [18] = test: Stabilization of Trypanosoma cruzi G-quadruplex RCr DNA (FAM-5'-GGGGACGGGAATGGGGGTGCATGAGGGG-3'-TAMRA) at 10 uM by FRET melting analysis; type: nucleic-acid assay
Quadruplex DNA [19] = test: Stabilization of human telomere G-quadruplex F21T DNA (FAM-5'-GGGTTAGGGTTAGGGTTAGGG-3'-TAMRA) at 5 uM in presence of 1 to 10 uM double stranded ds26 DNA by FRET melting analysis; type: nucleic-acid assay
Quadruplex DNA [20] = test: Stabilization of Trypanosoma cruzi G-quadruplex RCr DNA (FAM-5'-GGGGACGGGAATGGGGGTGCATGAGGGG-3'-TAMRA) at 5 uM in presence of 1 to 10 uM double stranded ds26 DNA by FRET melting analysis; type: nucleic-acid assay
Quadruplex DNA [21] = test: Binding affinity to Trypanosoma cruzi G-quadruplex RCr DNA (FAM-5'-GGGGACGGGAATGGGGGTGCATGAGGGG-3'-TAMRA) assessed as broadening of imino proton signals with delta shift at 1 equiv. by 1H-NMR analysis; type: nucleic-acid assay
Quadruplex DNA [22] = test: Binding affinity to Trypanosoma cruzi G-quadruplex MCr DNA (FAM-5'-GTGGAGGGGGAGGGTCATGGGG-3'-TAMRA) assessed as broadening of imino proton signals at 1 equiv. by 1H-NMR analysis; type: nucleic-acid assay
Quadruplex DNA [23] = test: Binding affinity to Trypanosoma cruzi G-quadruplex TCr DNA (FAM-5'-GGGAGGGACGGATGGGCAGAAACGGG-3'-TAMRA) assessed as broadening of imino proton signals at 1 equiv. by 1H-NMR analysis; type: nucleic-acid assay
Quadruplex DNA [24] = test: Binding affinity to Trypanosoma cruzi G-quadruplex RCr DNA (FAM-5'-GGGGACGGGAATGGGGGTGCATGAGGGG-3'-TAMRA) assessed as increase in melting temperature at DNA:compound concentration ratio of 1:2 by CD melting assay; type: nucleic-acid assay
Quadruplex DNA [25] = test: Binding affinity to Trypanosoma cruzi G-quadruplex MCr DNA (FAM-5'-GTGGAGGGGGAGGGTCATGGGG-3'-TAMRA) at DNA:compound concentration ratio of 1:1 to 1:2 by CD melting assay; type: nucleic-acid assay
Quadruplex DNA [26] = test: Binding affinity to Trypanosoma cruzi G-quadruplex RCr DNA (FAM-5'-GGGGACGGGAATGGGGGTGCATGAGGGG-3'-TAMRA) assessed as decrease in absorption with shift to higher wavelength at 30 uM by UV-Vis spectrophotometric analysis; type: nucleic-acid assay
Quadruplex DNA [27] = test: Binding affinity to Trypanosoma cruzi G-quadruplex MCr DNA (FAM-5'-GTGGAGGGGGAGGGTCATGGGG-3'-TAMRA) assessed as decrease in absorption with shift to higher wavelength at 30 uM by UV-Vis spectrophotometric analysis; type: nucleic-acid assay
dsDNA [28] = test: Binding affinity to double stranded ds26 DNA (unknown origin) assessed as decrease in absorbance with shift to lower wavelength at 30 uM by UV-Vis spectrophotometric analysis; type: nucleic-acid assay
Trypanosoma cruzi [29] = test: Potency index, ratio of Benznidazole IC50 to test compound IC50 for antiparasitic activity against trypomastigote form of Trypanosoma cruzi SOL (MHOM/ES/2008/SOL; DTU V) by resazurin dye based fluorescence analysis; type: functional

| SMILES | IC50 (Trypanosoma cruzi [1]) [µM] | IC50 (Trypanosoma cruzi [2]) [µM] | IC50 (Trypanosoma cruzi [3]) [µM] | IC50 (Trypanosoma cruzi [4]) [µM] | IC50 [5] [µM] | selectivity ratio [6] | selectivity ratio [7] | selectivity ratio [8] | selectivity ratio [9] | other results |
| --- | --- | --- | --- | --- | --- | --- | --- | --- | --- | --- |
| Cc1sc(-c2ccc(N3CCNCC3)cc2)cc1C1=C(c2cc(-c3ccc(N4CCNCC4)cc3)sc2C)CCC1 | 29.5 | 30.8 | 29.8 | 13.9 | 8 | < 1 | < 1 | < 1 | < 1 | – |
| CN(C)c1ccc(Nc2c3ccc(NC(=O)CCN4CCCC4)cc3nc3cc(NC(=O)CCN4CCCC4)ccc23)cc1 | > 100 | > 100 | 49.4 | 47.5 | – | < 1 | < 1 | < 1 | < 1 | – |
| O=C(Cn1ccnc1[N+](=O)[O-])NCc1ccccc1 [BENZNIDAZOLE] | 20.3 | 11.2 | 6.3 | – | 47.2 | 2.3 | 4.2 | 7.5 | – | IC50 (Trypanosoma cruzi [10]): 57.1 µM; selectivity ratio [11]: < 1 |
| Cc1sc(-c2cc[n+](C)cc2)cc1C1=C(c2cc(-c3cc[n+](C)cc3)sc2C)CCC1 | 23.1 | > 27.4 | > 28.6 | > 28.2 | 2.4 | < 1 | < 1 | < 1 | < 1 | – |
| Cc1sc(-c2ccc(CCN(C)C)cc2)cc1C1=C(c2cc(-c3ccc(CCN(C)C)cc3)sc2C)CCC1 | 3.6 | 3.8 | 4 | 2.7 | 2.6 | < 1 | < 1 | < 1 | < 1 | – |
| C[C@]12SC(c3ccc4cccnc4c3)=CC1=C1CCCC1=C1C=C(c3ccc4cccnc4c3)S[C@@]12C | 20.9 | 22.3 | 40.7 | 20.6 | 82.5 | 3.9 | 3.7 | 2 | 4 | IC50 (Trypanosoma cruzi [10]): 3.3 µM; selectivity ratio [11]: 25; ΔTm (Quadruplex DNA [12]): 17 °C; ΔTm (Quadruplex DNA [13]): 14 °C; ΔTm (Quadruplex DNA [14]): 17 °C; ΔTm (Quadruplex DNA [15]): 17 °C; ΔTm (Quadruplex DNA [16]): 17 °C; Activity (dsDNA [17]): inactive; Activity (Quadruplex DNA [18]): Active; Activity (Quadruplex DNA [19]): Active; Activity (Quadruplex DNA [20]): Active; Activity (Quadruplex DNA [21]): Active; Activity (Quadruplex DNA [22]): Active; Activity (Quadruplex DNA [23]): Active; ΔTm (Quadruplex DNA [24]): 3.81 °C; Activity (Quadruplex DNA [25]): Active; Activity (Quadruplex DNA [26]): Active; Activity (Quadruplex DNA [27]): Active; Activity (dsDNA [28]): inactive; Ratio IC50 (Trypanosoma cruzi [29]): 17 |
| C[C@]12SC(c3ccc(N4CCNCC4)cc3)=CC1=C1CCCC1=C1C=C(c3ccc(N4CCNCC4)cc3)S[C@@]12C | > 50 | > 50 | > 50 | 32 | 4.3 | < 1 | < 1 | < 1 | < 1 | – |
| Cc1sc(-c2ccc(-c3cc[n+](C)cc3)cc2)cc1C1=C(c2cc(-c3ccc(-c4cc[n+](C)cc4)cc3)sc2C)CCC1 | 14 | 37.1 | 25.2 | 28.4 | 2.2 | < 1 | < 1 | < 1 | < 1 | – |
| Cc1sc(-c2ccc(CC[N+](C)(C)C)cc2)cc1C1=C(c2cc(-c3ccc(CC[N+](C)(C)C)cc3)sc2C)CCC1 | 14.2 | 21.2 | 19.1 | 6.8 | 2.7 | < 1 | < 1 | < 1 | < 1 | – |
| Cc1sc(-c2ccc(CN3CCCC3)cc2)cc1C1=C(c2cc(-c3ccc(CN4CCCC4)cc3)sc2C)CCC1 | 6.6 | 9.75 | 4.6 | 6.1 | 7.2 | 1.1 | < 1 | 1.6 | 1.2 | – |
| C[C@]12SC(c3ccc(CN4CCCC4)cc3)=CC1=C1CCCC1=C1C=C(c3ccc(CN4CCCC4)cc3)S[C@@]12C | > 34 | > 50 | > 50 | 40.1 | 22.5 | < 1 | < 1 | < 1 | < 1 | – |
| Cc1sc(-c2cccc3c2ccc[n+]3C)cc1C1=C(c2cc(-c3cccc4c3ccc[n+]4C)sc2C)CCC1 | 22.8 | 20.4 | 22.7 | 14.4 | 20.5 | < 1 | 1 | < 1 | 1.4 | – |
| C[C@]12SC(c3ccc(-c4ccncc4)cc3)=CC1=C1CCCC1=C1C=C(c3ccc(-c4ccncc4)cc3)S[C@@]12C | 42.8 | > 50 | 60.1 | 36.6 | 4.9 | < 1 | < 1 | < 1 | < 1 | – |
| NCCOc1cc(C(=O)Nc2cc(OCCN)c3ccccc3n2)nc(C(=O)Nc2cc(OCCN)c3ccccc3n2)c1 [PYRIDOSTATIN] | > 100 | > 100 | > 100 | > 100 | – | < 1 | < 1 | < 1 | < 1 | – |
| C[C@]12SC(c3ccncc3)=CC1=C1CCCC1=C1C=C(c3ccncc3)S[C@@]12C | 13.9 | > 18.3 | > 25.6 | 30.2 | 3.3 | < 1 | < 1 | < 1 | < 1 | – |
| CN(C)CCc1ccc(C2=CC3=C4CCCC4=C4C=C(c5ccc(CCN(C)C)cc5)S[C@]4(C)[C@@]3(C)S2)cc1 | 31.1 | 45.1 | > 48.4 | 13.4 | 6.1 | < 1 | < 1 | < 1 | < 1 | – |
